Laboratory results taken from the kinase profiling compilation of Christmann-Franck et al. (2016).

Experiments:
Assay in all cases: radiometric filter-binding kinase assay, Kinase HotSpot
Details in all cases: compound 0.5 µM; ATP 10 µM
ADRBK1 (human) = ADRBK1 (human) (UniProt P25098)
CAMKK1 (human) = CAMKK1 (human) (UniProt Q8N5S9)
CDK3 CCNE1 (human) = CDK3 CCNE1 (human) (UniProt Q00526+P24864)
CLK3 (human) = CLK3 (human) (UniProt P49761)
CSNK1A1 (human) = CSNK1A1 (human) (UniProt P48729)
CSNK1E (human) = CSNK1E (human) (UniProt P49674)
CSNK2A1 (human) = CSNK2A1 (human) (UniProt P68400)
DYRK1B (human) = DYRK1B (human) (UniProt Q9Y463)
EPHA3 (human) = EPHA3 (human) (UniProt P29320)
EPHA7 (human) = EPHA7 (human) (UniProt Q15375)
Chain of EPHA7 (human) (Q15375 whole entry, looked up): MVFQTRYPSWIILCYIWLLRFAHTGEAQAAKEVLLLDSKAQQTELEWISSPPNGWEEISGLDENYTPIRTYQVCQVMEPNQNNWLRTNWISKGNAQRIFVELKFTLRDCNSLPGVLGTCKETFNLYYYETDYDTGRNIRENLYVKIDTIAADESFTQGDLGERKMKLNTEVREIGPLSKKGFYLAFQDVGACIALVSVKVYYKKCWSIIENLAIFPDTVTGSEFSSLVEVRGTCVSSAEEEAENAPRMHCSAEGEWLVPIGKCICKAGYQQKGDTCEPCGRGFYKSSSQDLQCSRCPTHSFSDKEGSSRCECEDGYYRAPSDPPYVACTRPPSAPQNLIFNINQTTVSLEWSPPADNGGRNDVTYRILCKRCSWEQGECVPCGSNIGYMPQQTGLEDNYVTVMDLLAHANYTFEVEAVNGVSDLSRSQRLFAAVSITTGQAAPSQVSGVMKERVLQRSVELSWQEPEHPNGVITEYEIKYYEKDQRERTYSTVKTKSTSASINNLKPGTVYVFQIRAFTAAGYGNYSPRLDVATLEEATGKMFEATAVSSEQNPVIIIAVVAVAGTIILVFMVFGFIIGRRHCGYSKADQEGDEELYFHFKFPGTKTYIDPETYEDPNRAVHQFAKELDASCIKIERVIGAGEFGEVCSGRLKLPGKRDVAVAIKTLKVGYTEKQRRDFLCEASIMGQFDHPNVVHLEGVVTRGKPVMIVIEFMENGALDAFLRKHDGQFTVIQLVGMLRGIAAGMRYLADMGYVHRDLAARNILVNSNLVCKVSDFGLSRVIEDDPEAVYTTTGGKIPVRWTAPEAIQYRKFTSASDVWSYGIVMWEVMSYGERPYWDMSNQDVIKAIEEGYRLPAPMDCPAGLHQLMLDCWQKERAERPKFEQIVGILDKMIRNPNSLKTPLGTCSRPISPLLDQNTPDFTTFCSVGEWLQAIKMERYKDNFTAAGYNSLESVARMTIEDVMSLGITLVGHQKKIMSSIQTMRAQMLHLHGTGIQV

EPHB1 (human) = EPHB1 (human) (UniProt P54762)
ERBB2 (human) = ERBB2 (human) (UniProt P04626)
Chain of ERBB2 (human) (P04626 whole entry, looked up): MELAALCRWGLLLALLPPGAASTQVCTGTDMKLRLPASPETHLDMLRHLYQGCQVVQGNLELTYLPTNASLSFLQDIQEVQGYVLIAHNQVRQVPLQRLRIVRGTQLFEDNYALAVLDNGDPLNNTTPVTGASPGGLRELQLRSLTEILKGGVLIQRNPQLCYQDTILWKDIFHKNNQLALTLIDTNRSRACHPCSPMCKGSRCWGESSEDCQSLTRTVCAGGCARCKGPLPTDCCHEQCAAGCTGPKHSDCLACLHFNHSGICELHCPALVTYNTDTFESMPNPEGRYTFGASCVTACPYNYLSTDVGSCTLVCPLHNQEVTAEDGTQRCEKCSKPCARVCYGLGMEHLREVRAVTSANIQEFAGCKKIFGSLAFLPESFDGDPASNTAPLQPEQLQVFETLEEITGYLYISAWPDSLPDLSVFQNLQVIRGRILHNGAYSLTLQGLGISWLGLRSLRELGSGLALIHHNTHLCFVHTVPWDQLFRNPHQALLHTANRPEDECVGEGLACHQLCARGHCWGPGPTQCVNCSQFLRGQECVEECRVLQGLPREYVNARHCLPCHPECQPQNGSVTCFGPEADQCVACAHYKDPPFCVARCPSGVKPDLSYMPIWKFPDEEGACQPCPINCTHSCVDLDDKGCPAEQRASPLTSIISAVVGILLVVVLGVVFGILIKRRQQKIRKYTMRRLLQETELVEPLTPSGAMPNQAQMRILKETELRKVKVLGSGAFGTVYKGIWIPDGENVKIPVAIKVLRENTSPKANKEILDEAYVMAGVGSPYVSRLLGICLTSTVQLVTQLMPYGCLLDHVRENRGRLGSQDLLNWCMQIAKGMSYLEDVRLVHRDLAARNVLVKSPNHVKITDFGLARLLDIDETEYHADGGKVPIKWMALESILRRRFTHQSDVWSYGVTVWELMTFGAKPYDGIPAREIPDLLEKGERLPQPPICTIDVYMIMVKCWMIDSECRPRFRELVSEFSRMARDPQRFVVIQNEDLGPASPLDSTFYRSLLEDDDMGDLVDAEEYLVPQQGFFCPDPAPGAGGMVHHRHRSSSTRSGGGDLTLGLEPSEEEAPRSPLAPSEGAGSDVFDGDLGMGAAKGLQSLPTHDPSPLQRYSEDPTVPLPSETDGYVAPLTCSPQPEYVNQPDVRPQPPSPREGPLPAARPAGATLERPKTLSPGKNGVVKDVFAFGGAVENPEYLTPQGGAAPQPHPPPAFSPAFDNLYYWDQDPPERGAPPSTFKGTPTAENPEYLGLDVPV

FGR (human) = FGR (human) (UniProt P09769)
FYN (human) = FYN (human) (UniProt P06241)
IGF1R (human) = IGF1R (human) (UniProt P08069)
IKBKB (human) = IKBKB (human) (UniProt O14920)
IKBKE (human) = IKBKE (human) (UniProt Q14164)
JAK3 JH1 JH2 (human) = JAK3 JH1 JH2 (human) (UniProt P52333)
MAP3K11 (human) = MAP3K11 (human) (UniProt Q16584)
Chain of MAP3K11 (human) (Q16584 whole entry, looked up): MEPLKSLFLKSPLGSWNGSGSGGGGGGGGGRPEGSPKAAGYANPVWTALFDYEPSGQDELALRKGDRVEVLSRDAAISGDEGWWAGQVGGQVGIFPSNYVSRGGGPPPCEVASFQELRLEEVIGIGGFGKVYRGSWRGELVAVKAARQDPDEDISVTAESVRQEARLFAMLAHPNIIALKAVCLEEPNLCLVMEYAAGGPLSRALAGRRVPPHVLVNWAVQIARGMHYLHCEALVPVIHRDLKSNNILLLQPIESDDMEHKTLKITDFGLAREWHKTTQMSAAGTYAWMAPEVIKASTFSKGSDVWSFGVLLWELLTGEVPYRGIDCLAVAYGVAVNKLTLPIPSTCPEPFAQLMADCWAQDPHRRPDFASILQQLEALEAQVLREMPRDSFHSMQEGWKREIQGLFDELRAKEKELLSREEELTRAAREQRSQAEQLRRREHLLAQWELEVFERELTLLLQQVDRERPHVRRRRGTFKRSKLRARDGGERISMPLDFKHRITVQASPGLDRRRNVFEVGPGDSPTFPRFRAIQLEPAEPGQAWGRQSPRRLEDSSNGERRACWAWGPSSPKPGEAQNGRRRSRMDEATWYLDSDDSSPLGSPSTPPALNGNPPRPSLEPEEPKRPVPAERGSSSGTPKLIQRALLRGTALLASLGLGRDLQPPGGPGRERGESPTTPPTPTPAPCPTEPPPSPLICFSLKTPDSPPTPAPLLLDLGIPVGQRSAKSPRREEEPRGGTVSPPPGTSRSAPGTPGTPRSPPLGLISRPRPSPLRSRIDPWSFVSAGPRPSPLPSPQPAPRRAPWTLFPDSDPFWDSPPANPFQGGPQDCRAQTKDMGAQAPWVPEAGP

MAP3K5 (human) = MAP3K5 (human) (UniProt Q99683)
MAP4K2 (human) = MAP4K2 (human) (UniProt Q12851)
MAPKAPK2 (human) = MAPKAPK2 (human) (UniProt P49137)
MLTK (human) = MLTK (human) (UniProt Q9NYL2)
MST1R (human) = MST1R (human) (UniProt Q04912)
MUSK (human) = MUSK (human) (UniProt O15146)
Chain of MUSK (human) (O15146 whole entry, looked up): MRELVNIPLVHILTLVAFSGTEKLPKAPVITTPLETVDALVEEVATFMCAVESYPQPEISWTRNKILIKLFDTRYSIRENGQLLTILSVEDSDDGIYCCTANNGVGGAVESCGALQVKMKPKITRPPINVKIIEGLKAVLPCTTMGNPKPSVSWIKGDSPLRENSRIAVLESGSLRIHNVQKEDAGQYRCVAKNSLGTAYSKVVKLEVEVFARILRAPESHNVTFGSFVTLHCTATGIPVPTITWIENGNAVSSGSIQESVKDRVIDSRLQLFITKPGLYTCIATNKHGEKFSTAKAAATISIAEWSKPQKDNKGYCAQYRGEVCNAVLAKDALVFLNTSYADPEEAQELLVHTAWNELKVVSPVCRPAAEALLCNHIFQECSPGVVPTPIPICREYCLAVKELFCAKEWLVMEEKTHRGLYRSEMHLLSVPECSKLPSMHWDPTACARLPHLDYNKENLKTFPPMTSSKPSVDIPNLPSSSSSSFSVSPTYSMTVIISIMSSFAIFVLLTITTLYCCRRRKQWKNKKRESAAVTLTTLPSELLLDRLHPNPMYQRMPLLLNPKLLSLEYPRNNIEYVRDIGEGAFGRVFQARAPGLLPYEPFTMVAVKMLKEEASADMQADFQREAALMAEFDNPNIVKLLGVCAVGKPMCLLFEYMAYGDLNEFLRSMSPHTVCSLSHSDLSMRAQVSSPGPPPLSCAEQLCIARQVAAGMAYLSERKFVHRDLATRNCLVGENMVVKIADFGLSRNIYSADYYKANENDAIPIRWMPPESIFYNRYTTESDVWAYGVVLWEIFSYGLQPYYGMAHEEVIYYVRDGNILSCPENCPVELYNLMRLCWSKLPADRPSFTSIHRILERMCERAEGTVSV

MYLK2 (human) = MYLK2 (human) (UniProt Q9H1R3)
NEK2 (human) = NEK2 (human) (UniProt P51955)
PAK4 (human) = PAK4 (human) (UniProt O96013)
PBK (human) = PBK (human) (UniProt Q96KB5)
Chain of PBK (human) (Q96KB5 whole entry, looked up): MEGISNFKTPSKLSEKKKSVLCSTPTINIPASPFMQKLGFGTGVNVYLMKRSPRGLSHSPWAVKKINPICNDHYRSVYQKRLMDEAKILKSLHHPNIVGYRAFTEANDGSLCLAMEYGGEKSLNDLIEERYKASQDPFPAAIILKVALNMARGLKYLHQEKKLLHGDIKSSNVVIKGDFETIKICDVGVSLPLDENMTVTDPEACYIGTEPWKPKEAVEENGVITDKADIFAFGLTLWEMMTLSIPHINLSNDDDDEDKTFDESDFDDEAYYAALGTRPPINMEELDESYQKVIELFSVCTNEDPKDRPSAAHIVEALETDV

PKN2 (human) = PKN2 (human) (UniProt Q16513)
PLK3 (human) = PLK3 (human) (UniProt Q9H4B4)
PRKCA (human) = PRKCA (human) (UniProt P17252)
PRKCB2 (human) = PRKCB2 (human) (UniProt P05771)
PRKCI (human) = PRKCI (human) (UniProt P41743)
PRKG2 (human) = PRKG2 (human) (UniProt Q13237)
Chain of PRKG2 (human) (Q13237 whole entry, looked up): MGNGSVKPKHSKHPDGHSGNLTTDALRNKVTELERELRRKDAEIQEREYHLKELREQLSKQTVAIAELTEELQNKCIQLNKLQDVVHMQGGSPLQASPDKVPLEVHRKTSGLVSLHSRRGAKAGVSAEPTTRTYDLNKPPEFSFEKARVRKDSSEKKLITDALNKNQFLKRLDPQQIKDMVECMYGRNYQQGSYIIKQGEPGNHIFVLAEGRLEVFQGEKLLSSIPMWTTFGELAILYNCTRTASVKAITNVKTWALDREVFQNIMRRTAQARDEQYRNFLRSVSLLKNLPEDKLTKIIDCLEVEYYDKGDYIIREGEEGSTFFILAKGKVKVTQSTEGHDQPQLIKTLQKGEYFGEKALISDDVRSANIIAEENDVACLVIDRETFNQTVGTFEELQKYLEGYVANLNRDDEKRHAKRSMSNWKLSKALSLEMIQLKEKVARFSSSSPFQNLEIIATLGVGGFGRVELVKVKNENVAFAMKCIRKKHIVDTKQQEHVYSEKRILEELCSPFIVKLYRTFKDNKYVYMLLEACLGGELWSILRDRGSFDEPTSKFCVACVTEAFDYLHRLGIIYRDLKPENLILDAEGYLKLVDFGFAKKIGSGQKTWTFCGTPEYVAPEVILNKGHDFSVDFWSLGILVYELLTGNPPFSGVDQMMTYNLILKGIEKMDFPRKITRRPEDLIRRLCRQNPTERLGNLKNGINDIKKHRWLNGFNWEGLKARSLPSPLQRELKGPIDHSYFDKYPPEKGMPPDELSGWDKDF

RIPK2 (human) = RIPK2 (human) (UniProt O43353)
ROCK1 (human) = ROCK1 (human) (UniProt Q13464)
RPS6KB1 (human) = RPS6KB1 (human) (UniProt P23443)
STK17A (human) = STK17A (human) (UniProt Q9UEE5)
STK33 (human) = STK33 (human) (UniProt Q9BYT3)
TBK1 (human) = TBK1 (human) (UniProt Q9UHD2)
TYRO3 (human) = TYRO3 (human) (UniProt Q06418)

Work on `COc1cc2nccc(Oc3ccc(NC(=S)NC(=O)c4ccccc4C)cc3)c2cc1OC` yielded a residual activity (ADRBK1 (human)) of 95.6%, a residual activity (CAMKK1 (human)) of 91.2% and a residual activity (CDK3 CCNE1 (human)) of 86.6%. For the same compound, the residual activity (CLK3 (human)) was 93.2%, the residual activity (CSNK1A1 (human)) was 96.3% and the residual activity (CSNK1E (human)) was 95.1%. For the same compound, the residual activity (CSNK2A1 (human)) was 98.9%, the residual activity (DYRK1B (human)) was 110% and the residual activity (EPHA3 (human)) was 105%. The residual activity (EPHA7 (human)) was 90.4%, the residual activity (EPHB1 (human)) was 98.5% and the residual activity (ERBB2 (human)) was 102%. For the same compound, the residual activity (FGR (human)) was 21.2%, the residual activity (FYN (human)) was 77.4% and the residual activity (IGF1R (human)) was 92.1%. For the same compound, the residual activity (IKBKB (human)) was 99.4%, the residual activity (IKBKE (human)) was 96.2% and the residual activity (JAK3 JH1 JH2 (human)) was 96.6%. It also gave a residual activity (MAP3K11 (human)) of 95.5%, a residual activity (MAP3K5 (human)) of 106% and a residual activity (MAP4K2 (human)) of 92.9%. It also gave a residual activity (MAPKAPK2 (human)) of 98%, a residual activity (MLTK (human)) of 71.7% and a residual activity (MST1R (human)) of 88.8%. For the same compound, the residual activity (MUSK (human)) was 95.9%, the residual activity (MYLK2 (human)) was 26.8% and the residual activity (NEK2 (human)) was 89%. It also gave a residual activity (PAK4 (human)) of 100%, a residual activity (PBK (human)) of 81.3% and a residual activity (PKN2 (human)) of 109%. It also gave a residual activity (PLK3 (human)) of 92.1%, a residual activity (PRKCA (human)) of 91.3% and a residual activity (PRKCB2 (human)) of 102%. For the same compound, the residual activity (PRKCI (human)) was 99.9%, the residual activity (PRKG2 (human)) was 90.5% and the residual activity (RIPK2 (human)) was 89.2%. It also gave a residual activity (ROCK1 (human)) of 90.5%, a residual activity (RPS6KB1 (human)) of 98% and a residual activity (STK17A (human)) of 82.3%. The residual activity (STK33 (human)) was 94.6%, the residual activity (TBK1 (human)) was 103% and the residual activity (TYRO3 (human)) was 92.2%.

In the case of `CSc1nc(-c2ccc(F)cc2)c(-c2ccnc(NC(C)c3ccccc3)c2)[nH]1` (stereo not drawn), the residual activity (ADRBK1 (human)) is reported as 102%, the residual activity (CAMKK1 (human)) is reported as 104% and the residual activity (CDK3 CCNE1 (human)) is reported as 85.3%. It also gave a residual activity (CLK3 (human)) of 85.4%, a residual activity (CSNK1A1 (human)) of 82.6% and a residual activity (CSNK1E (human)) of 72%. The residual activity (CSNK2A1 (human)) was 100%, the residual activity (DYRK1B (human)) was 84.6% and the residual activity (EPHA3 (human)) was 82.5%. It also gave a residual activity (EPHA7 (human)) of 102%, a residual activity (EPHB1 (human)) of 96.4% and a residual activity (ERBB2 (human)) of 99.2%. For the same compound, the residual activity (FGR (human)) was 88.1%, the residual activity (FYN (human)) was 98.7% and the residual activity (IGF1R (human)) was 101%. The residual activity (IKBKE (human)) was 84%, the residual activity (JAK3 JH1 JH2 (human)) was 98.5% and the residual activity (MAP3K11 (human)) was 101%. The residual activity (MAP3K5 (human)) was 106%, the residual activity (MAP4K2 (human)) was 82.5% and the residual activity (MAPKAPK2 (human)) was 106%. For the same compound, the residual activity (MLTK (human)) was 85.7%, the residual activity (MST1R (human)) was 81.3% and the residual activity (MUSK (human)) was 101%. It also gave a residual activity (MYLK2 (human)) of 102%, a residual activity (NEK2 (human)) of 89.9% and a residual activity (PAK4 (human)) of 96.4%. For the same compound, the residual activity (PBK (human)) was 109%, the residual activity (PKN2 (human)) was 76.1% and the residual activity (PLK3 (human)) was 99.7%. For the same compound, the residual activity (PRKCA (human)) was 108%, the residual activity (PRKCB2 (human)) was 101% and the residual activity (PRKCI (human)) was 91.9%. It also gave a residual activity (PRKG2 (human)) of 102%, a residual activity (RIPK2 (human)) of 85.1% and a residual activity (ROCK1 (human)) of 91.7%. For the same compound, the residual activity (RPS6KB1 (human)) was 91.2%, the residual activity (STK17A (human)) was 97.8% and the residual activity (STK33 (human)) was 107%. It also gave a residual activity (TBK1 (human)) of 92% and a residual activity (TYRO3 (human)) of 108%.
